Laboratory results reported in article PMC11530130, “Peripherally restricted PICK1 inhibitor mPD5 ameliorates pain behaviors in murine inflammatory and neuropathic pain models” (JCI Insight, 2024).
“And” between values parts separate entries of the source, which are not always exact repeats. Identical values can stand only once.

Legend:
[1] = Stability of mPD5 in PBS, 30 days at 5 °C and 25 °C, HPLC-UV-MS
Method: SUPPORTING INFORMATION: Method Section.
Sex as a biological variable.
All peptides were ordered from WuXI AppTec (Shanghai, China) or TAG-Copenhagen […]
Assessment of solubility and stability of mPD5.
Solubility was determined by visual inspection of samples dissolved in increasing concentration in 10 mM PBS as judged by full transparency and monophasic appearance.
Stability was addressed by […] for four concentrations (2, 20, 50, and 200 µM), by leaving mPD5 in PBS at 5 °C and 25 °C for 30 days followed by HPLC-UV-MS. […]
Superdex200 Increase 10/300.

naive mice = experiment: Male fertility test; type: in vivo, mouse; design: Male fertility test, individual values (Fig 6E) / male fertility test, BB value (Fig S8C) / male fertility test, AB value (Fig S8C): unit not given here
Source text: Mice were 10 weeks old at the beginning of the experiment and acclimatized to the animal facility for two weeks after arrival. Male mice were randomized into two groups (n = 8/group) and weighed and injected s.c. once daily (between 3 pm and 4 pm) for 14 days with sterile PBS or 10 μmol/kg mPD5 (diluted in sterile PBS and pH adjusted to 7.4). After 14 days of dosing, the males were paired with female mice in fresh cages, and the number of pubs counted for 35 days (males were removed from the breeding cages after 14 days). Following the 14 days mating period, males were sacrificed by cervical dislocation caudae epidymidis were removed and weighed. Caudae epidymidis were cut into smaller pieces in 2 mL PBS (37 °C) and incubated (37 °C, 5% CO2) for 15 min. Following incubation, the mix was swirled gently, and 0.5 mL of the liquid was transferred to room tempered PBS to achieve a final volume of 1 mL.
Subsequently, sperm count was determined by transferring 50 µL of the sample to a hemocytometer, and each sample was determined in duplicate by an experimenter blinded to drug treatment. Following criteria were assessed: mobility (forward and circular), local tail mobility and total number. Females were weighed on a regular basis from removal of the males […]
Unless otherwise stated, all data were analysed using GraphPad Prism 9.4.1. and presented as mean +-SEM with the significance level set to p < 0.05. For locomotion and elevated plus maze, Ethovision XT 13 (Noldus) was used to track the distance travelled by each animal. For within group analysis (i.e., von Frey experiments), two-way ANOVA followed by Dunnett’s post hoc test was used. For between group analysis of multiple time points (i.e., locomotion experiments), two-way ANOVA was used without post hoc test due to lack of treatment significance in the ANOVA test. For the limb use experiment, data pre versus post treatment was analysed with a Kruskal Wallis test due to the non-parametric nature of the data. When analysing histograms of three groups or more (i.e., marble burying and elevated plus maze),

[2] = 30 days 5°C, nominal conc. 2 μM
[3] = 30 days 5°C, nominal conc. 20 μM
[4] = 30 days 5°C, nominal conc. 50 μM
[5] = 30 days 5°C, nominal conc. 200 μM
[6] = 30 days 25°C, nominal conc. 2 μM
[7] = 30 days 25°C, nominal conc. 20 μM
[8] = 30 days 25°C, nominal conc. 50 μM
[9] = 30 days 25°C, nominal conc. 200 μM
[10] = males s.c. 10 μmol/kg, once daily for 14 days
[11] = s.c. 10 μmol/kg, once daily for 14 days

With CCCCCCCCCCCCCC(=O)N(CCOCCOCCC(=O)N[C@@H](Cc1c[nH]cn1)C(=O)N[C@@H](Cc1c[nH]c2ccccc12)C(=O)N[C@@H](CC(C)C)C(=O)N[C@@H](CCCCN)C(=O)N[C@H](C(=O)O)C(C)C)CCOCCOCCC(=O)N[C@@H](Cc1c[nH]cn1)C(=O)N[C@@H](Cc1c[nH]c2ccccc12)C(=O)N[C@@H](CC(C)C)C(=O)N[C@@H](CCCCN)C(=O)N[C@H](C(=O)O)C(C)C [mPD5, myristoyl-NPEG4-(HWLKV)2] the “Measured conc. mPD5” value [1, 2] was 0.5 µM, the UV-HPLC peak area [1, 2] was 37 and the pH [1, 2] was 7.37. The “Measured conc. mPD5” value [1, 3] was 17 µM, the UV-HPLC peak area [1, 3] was 1196 and the pH [1, 3] was 7.40. For the same molecule, the “Measured conc. mPD5” value [1, 4] was 49 µM, the UV-HPLC peak area [1, 4] was 3347 and the pH [1, 4] was 7.39. For the same molecule, the “Measured conc. mPD5” value [1, 5] was 194 µM, the UV-HPLC peak area [1, 5] was 6665 and the pH [1, 5] was 7.37. For the same molecule, the “Measured conc. mPD5” value [1, 6] was 0.4 µM, the UV-HPLC peak area [1, 6] was 26 and the pH [1, 6] was 7.37. The “Measured conc. mPD5” value [1, 7] was 17 µM, the UV-HPLC peak area [1, 7] was 1161 and the pH [1, 7] was 7.39. For the same molecule, the “Measured conc. mPD5” value [1, 8] was 48 µM, the UV-HPLC peak area [1, 8] was 3325 and the pH [1, 8] was 7.41. For the same molecule, the “Measured conc. mPD5” value [1, 9] was 203 µM, the UV-HPLC peak area [1, 9] was 7005 and the pH [1, 9] was 7.36. The shelf stability ([1]; PBS, 30 days, 5°C and 25°C) was “excellent shelf stability”, the “male fertility test, AB value (Fig S8C)” value (naive mice; AB, individual animals) was 28 (3×) and 27 and 26 and 28.5 and 29 and the “male fertility test, BB value (Fig S8C)” value (naive mice; BB, individual animals) was 41.5 and 43 and 45 (2×) and 41 (2×) and 44. For the same molecule, the “male fertility test, cumulative value by day (Fig S8B)” value (“male fertility test, cumulative value” for short) (naive mice; Day 19) was 0, the “male fertility test, cumulative value” value (naive mice; Day 20) was 17 and the “male fertility test, cumulative value” value (naive mice; Day 21) was 27. For the same molecule, the “male fertility test, cumulative value” value (naive mice; Day 22) was 56, the “male fertility test, cumulative value” value (naive mice; Day 23) was 64 and the “male fertility test, cumulative value” value (naive mice; Day 24) was 64. For the same molecule, the “male fertility test, cumulative value” value (naive mice; Day 25) was 64, the “male fertility test, cumulative value” value (naive mice; Day 26) was 64 and the “male fertility test, cumulative value” value (naive mice; Day 27) was 64. For the same molecule, the “male fertility test, cumulative value” value (naive mice; Day 28) was 64, the “male fertility test, cumulative value” value (naive mice; Day29) was 64 and the “male fertility test, cumulative value” value (naive mice; Day 30) was 64. The “male fertility test, cumulative value” value (naive mice; Day 31) was 64, the “male fertility test, cumulative value” value (naive mice; Day 32) was 64 and the “male fertility test, cumulative value” value (naive mice; Day 33) was 64. For the same molecule, the “male fertility test, cumulative value” value (naive mice; Day 34) was 64, the “male fertility test, cumulative value” value (naive mice; Day 35) was 64 and the “body weight drop per pup following birth” value (naive mice; [10]) was “the same for both groups”. The “number of pups per litter vs vehicle” value (naive mice; [10]) was “same between groups”, the “weight gain of females mated with treated male mice” value (naive mice; [10]) was “significantly higher” and the “Male fertility test, individual values (Fig 6E)” value (naive mice; naive mice) was 8 and 9 and 10. For the same molecule, the “sperm count of the males vs vehicle” value (naive mice; [11]) was “same between groups” and the “sperm count, individual mice” value (naive mice; [11]) was 15062500 and 13125000 and 14250000 and 7750000 and 16000000 and 10750000.
